The values below come from patent US5004593A (Mayo Foundation for Medical Education and Research, priority 1989, dated 1991).

A short description of series [1]: HMM concentration in formulation before and after filtration (% theoretical) and precipitation. Format: physicochemical. As to conditions: for % Theoretical HMM Concentration, After Filter: 0.45μ filter. As to the method: (§1) Unit dose amounts of drug, Intralipid 10%®, and diluents were changed as dose levels of HMM increased throughout the study. At doses which will be relevant for Phase II evaluation of the parenteral formulation, the following drug preparation scheme was employed. The Mayo Comprehensive Cancer Center Pharmacy weighed 500 mg portions of bulk HMM into sterile vials. HMM was dissolved in 0.1 N hydrochloric acid (sterile HCl for parenteral administration, USP) by adding 27.50 ml of the 0.1 N HCl to each 500 mg vial. The concentration of this solution was 18.2 mg HMM.HCl/ml. The volume of the HMM.HCl solution to be drawn up for each patient was determined by dividing the patient dose level by 18.2 (e.g., for a 750 mg dose, 750 mg divided by 18.2 mg/ml =41.2 ml of the HMM.HCl solution withdrawn from the vial). A 0.22 micron filter assembly was fitted to the syringe containing the appropriate HMM.HCl solution. The volume was filtered into a 500 ml empty sterile and sealed vial. Thus, the correct patient dose was placed in the evacuated vial. An equal volume of air was withdrawn from the sealed vial to maintain vacuum.
The amount of Intralipid 10%® to be added was determined by dividing the dose by 5.1 (e.g. 750 divided by 5.1=147 ml). The appropriate volume of Intralipid 10%® was added to the 500 ml vial containing the HMM.HCl solution. Finally, the volume of sodium bicarbonate (sodium bicarbonate for parenteral injection, USP, 1 mEq/ml) was determined by the formula of 0.1 ml sodium bicarbonate for every 20 mg of HMM to be administered (e.g., 750 mg divided by 20=37.5×0.1 ml =3.75 ml sodium bicarbonate). This provided approximately a 4 mg/ml solution of HMM-Intralipid 10%®. A vented tubing set was added to the bottle with the patient's dose. A particulate filter (4.5 micron) was attached to an 18 gauge needle and the filter and needle were placed on the tubing to fill the 500 ml empty bag. The drug was administered at a rate of 2 ml/min or 8 mg/min. Thus, infusion time was lengthened as dose levels increased maintaining a constant rate of drug administration. Fifty (50) ml of normal saline was infused following completion of the HMM infusion.
Details of drug preparation are described in the Methods section while a summary of the formulation procedure is shown in Table 1, below.
This modification of the initial formulation reported in Cancer Treat. Rep., 66, 1579 (1982) to first dissolve the HMM in aqueous HCl, eliminated the use of a toxic organic solvent (ethanol or dimethylacetamide) while ensuring complete and uniform mixing of drug with Intralipid 10%®. Assessment of the formulated product was determined at each step of the procedure by measuring HMM concentrations before and after filtration through 0.45 micron filters (Intralipid 10%® average particle size is approximately 0.40 micron). […] HMM concentrations following filtration of such mixtures yielded <5% of the theoretical HMM concentration.

Series [2] relates to ovarian adenocarcinoma, metastatic small cell carcinoma of the lung, metastatic breast cancer and refractory lymphoma. As to conditions: single agent clinical trials; cited from earlier work.
Series [3] in a line: Phase I plasma and urine pharmacokinetics of intravenous HMM in Intralipid 10% (GC assay). Format: in vivo, human (cancer patients). The procedure: (§2) Eighteen patients were treated on the one day every four weeks schedule and 28 patients were treated on the daily ×5 four weeks schedule. Tumors included lung, colorectal, gastric, breast, ovarian, renal, bladder, parotide, hepatic, small bowel, thyroid, fibrosarcoma and fibroblastic osteosarcoma. Forty-five of 47 patients had received prior chemotherapy and/or radiotherapy. All patients had histologic or cytologic confirmation of unresectable cancer for which there was no conventional means of therapy that offered reasonable hope of cure or of significant palliation. All patients were ambulatory and in a reasonable state of nutrition. Patients were required to have WBC count ≥4,000/mm^2, platelet count ≥130,000 m^2, hemoglobin ≥10 g/dl, serum creatinine ≤1.5 mg/dl, ECOG performance status <3, fasting serum triglycerides ≤500 mg/dl. Patients were excluded if they presented with uncontrolled infections, persistent (daily) nausea and/or vomiting, significant chronic obstructive pulmonary disease, any neurologic impairment, major surgery within the proceeding 30 days, radiation to >15% of the bone marrow within 30 days or radiation to total area >30% of bone marrow at any time.
(§3) Tests done prior to entry into study included a history, physical examination and tumor measurement whenever possible, WBC count, hemoglobin, platelet count, chest x-ray, electrocardiogram, electroencephalogram, urine analysis, triglycerides, SGOT, and serum creatinine. Between courses of treatment, the hematology group was checked twice weekly and the hemoglobin, SGOT and serum creatinine once weekly. Triglycerides were determined before and after each HMM treatment. Patients were entered in groups of three at each dose level. New patients were entered at a higher dose level only after the three patients treated at the previous level had been observed for a minimum of three weeks, counting from the last day of treatment. Patients not having significant toxicity at a given dose level were retreated at the next higher dose level but a minimum of three patients who never received HMM were entered at each escalation on each schedule. Dose levels on the daily ×5 schedule were […]. Dose increments for the one-day schedule were 360, 540, 675, 750, 844, and 1,000 mg/m^2.
as §1
(§4) The amount of Intralipid 10%® to be added was determined by dividing the dose by 5.1 (e.g. 750 divided by 5.1=147 ml). The appropriate volume of Intralipid 10%® was added to the 500 ml vial containing the HMM.HCl solution. […]

For series [4] the following is noted: cited from earlier work.
The conditions of series [5]: clinical; cited from earlier work.
Series [6] relates to refractory tumors. The series is described as follows: Phase I clinical trial, tumor response to intravenous HMM. Format: in vivo, human (cancer patients). As to conditions: i.v. As to the method:
as §2, with “Patients were excluded if they presented with uncontrolled infections, persistent (daily) nausea and/or vomiting, significant chronic obstructive pulmonary disease, any neurologic impairment, major surgery within the proceeding 30 days, radiation to >15% of the bone marrow within 30 days or radiation to total area >30% of bone marrow at any time.” left out
Tests done prior to entry into study included a history, physical examination and tumor measurement whenever possible, WBC count, hemoglobin, platelet count, chest x-ray, electrocardiogram, electroencephalogram, urine analysis, triglycerides, SGOT, and serum creatinine. […] Triglycerides were determined before and after each HMM treatment. […]

The conditions of series [7]: oral administration, rabbits; due to extensive first-pass metabolism rather than poor absorption; cited from earlier work.
For series [8] the following is noted: oral administration, man; cited from earlier work.
The nature of series [9]: Phase I clinical trial, toxicity of intravenous HMM. It is filed as in vivo, human (cancer patients). The procedure: as §2, §3, §1, §4
The conditions of series [10]: man; cited from earlier work.
The conditions of series [11]: i.v., dogs, one specific HMM hydrochloride preparation; cited from earlier work.
Where [12] appears, read: after NaHCO3 (1 mEq/ml) 0.1 ml:5 ml, ca. 4 mg/ml.
Setting [13] is: dissolved in 0.1 N HCl, ca. 20 mg/ml.
Where [14] appears, read: 540 mg/m^2 i.v., three-compartment open model.
[15] abbreviates: i.v., one-day or daily ×5 schedules.

Entries after “also recorded” stand apart in the source; their conditions may differ. Where a name gives a salt, the structure may show the parent alone. Some results are limits rather than exact numbers.

For orientation: half-life means the time in which the quantity being followed falls by half. As for `CN(C)c1nc(N(C)C)nc(N(C)C)n1` [HMM, 2,4,6-tris(dimethylamino)-1,3,5-triazine], the “% Theoretical HMM Concentration, After Filter” value in series [1] (after Intralipid 10% added 4 ml:1 ml, ca. 4 mg/ml) worked out at 100%. Further, in [1] (setting [12]), the “% Theoretical HMM Concentration, Before Filter” value worked out at 100% and the “% Theoretical HMM Concentration, After Filter” value stood at 100%. Further, in series [1] (setting [13]), the “% Theoretical HMM Concentration, Before Filter” value amounted to 100% and the “% Theoretical HMM Concentration, After Filter” value is 100%. Besides, in series [1] (final product, 0.45 micron filter), the “HMM concentration in the final filtered product, % of theoretical” value is on record as 90-95%. Moreover, the active against cancers result in [2] is “active against a number of cancers including ovarian adenocarcinoma, metastatic small cell carcinoma of the lung, metastatic breast cancer and refractory lymphoma”. In addition, in series [3] (setting [14]), the “steady state volume of distribution” value was 460 1/m^2, the “steady state volume of distribution (Vdss)” value was 460 l/m^2, the terminal half-life is 10.4 h and the “total body clearance (ClTB)” value was 0.75 1/min/m^2. Besides, in series [3] (945 mg/m^2, daily ×5), the “accumulation during five-day treatment” value was “disproportionate accumulation” and the “observed vs predicted (simulated) 24 hour trough plasma concentrations” value is given as “significantly greater than predicted”. Further, the “accumulation during five-day treatment” value in series [3] (945 mg/m^2, daily ×5, listed as hexamethylmelamine) was “possible saturation of parent drug elimination”. For the same molecule, the “observed vs predicted (simulated) 24 hour trough plasma concentrations” value in [3] (506 and 632 mg/m^2, daily ×5) is recorded as “in agreement with predicted values”. Moreover, the “Twenty-four hour urinary recoveries of parent drug” value in series [3] (24 h, all patients) is given as “less than one”. Besides, in series [3] (daily ×5 schedule, plasma), the “HMM 24 hours following each dose” value is “detected” and the “change of 24 hour drug concentration over days” value is “increased each day”. The Cmax in series [3] (human, iv, 540 mg/m^2 one-day schedule, five patients, plasma, read-out: Peak concentrations of HMM at the end of infusion) fell in the range of 2550 to 9350 ng/mL. In addition, the half-life in series [3] (human, plasma, iv, 540 mg/m^2 i.v., three-compartment open model, read-out: terminal half-life (converted)) is 10.4 h. The dose excreted at 24 h in [3] (human, urine, iv, 24 h, read-out: 24 hour urinary recovery of parent drug) was less than 1%. Moreover, the “plasma levels / plasma AUC compared with oral administration” value in series [3] (i.v. vs oral) is reported as “Substantially higher plasma AUC values”. Moreover, in series [3] (i.v. vs oral (D'Incalci)), the “consistency of plasma concentrations compared with oral” value was “more consistent plasma concentrations”. In addition, the demethylated urinary metabolites result in [3] (urine) was “Demethylated urinary metabolites including penta-, tetra-, tri-, and di-methylmelamines were detected in urine”. Also, the “solubility in water and nontoxic solvents” value in series [4] is “very limited solubility in water and nontoxic solvents”. For the same molecule, in series [5], the delayed toxicity result was “moderate anemia, thrombocytopenia, leukopenia, and a peripheral neuropathy”; the “main acute adverse effects” value is “Nausea and vomiting”; the “peripheral neuropathy, symptoms” value is “parethesias, hypesthesias, motor weakness, and other sensory alterations”. The tumor responses entry in series [6] is on record as “No objective responses; also recorded: no tumor responses were observed”. Moreover, in series [7], the bioavailability entry was “poor bioavailability”. Besides, the “plasma concentrations of parent drug” value in [8] was “Low and variable plasma concentrations of parent drug”. The “white blood cell counts” value in [9] (all patients) is listed as ≥ 3,000 /μl. For the same molecule, the maximally tolerated dose in [9] (daily ×5 schedule, i.v.) is approximately 630 mg/m^2 /day. Besides, in series [9] (five days in a row every four weeks), the maximum-tolerated doses is 500-600 mg/m^2 /day. For the same molecule, in series [9] (i.v.), the myelosuppression entry is “minimal myelosuppression”. Also, the “peripheral neuropathy compared with oral administration” value in series [9] (i.v. aqueous fat emulsion vs same amount orally) is on record as “reduced from the level observed when the same amount of HMM is administered orally”. In series [9] (setting [15]), the “CNS toxicity, peripheral neuropathy” value is given as “no CNS toxicity, specifically peripheral neuropathy, was noted in any patients”; the dose-limiting toxicity entry is “nausea and vomiting”. The “platelet nadir below 100,000/μl (one patient)” value in [9] (one-day administration of 540 mg/m^2) is 75,000 /μl. Also, the hematologic toxicities result in series [9] (one-day or five-day regimen) is recorded as “no significant hematologic toxicities”. For the same molecule, in [9] (one-day schedule, i.v.), the maximally tolerated dose entry is given as “approximately 850 mg/m^2”.

With `CN(C)c1nc(N(C)C)nc(N(C)C)n1` [HMM hydrochloride], in series [10], the “local irritation and phlebitis” value is “severe local irritation and phlebitis”. Besides, in series [11], the “tolerability, intravenous” value is “well-tolerated”.
